Test results taken from article PMC8911775, “Phosphodiester Silybin Dimers Powerful Radical Scavengers: A Antiproliferative Activity on Different Cancer Cell Lines” (Molecules, 2022).

Legend:
[1] = test system: HDF; test: Antiproliferative activity on normal human fibroblasts HDF; assay type: cell-based; conditions: 48 h incubation
Procedure: (§1) Human T lymphoblastoid (Jurkat) and human metastatic melanoma (WM266) cell lines were grown in RPMI medium supplemented with heat inactivated 10% fetal bovine serum (FBS), 2.5 mM glutamine, 100 U/mL penicillin, and 100 μg/mL streptomycin (Euroclone). Human cervix adenocarcinoma cell line (HeLa), human lung carcinoma (A549), human pancreatic cancer (PANC), human glioblastoma (U87) normal human fibroblasts (HDF) were grown in DMEM supplemented with 10% fetal bovine serum (FBS), 1% glutamine, 100 U/mL penicillin and 100 μg/mL streptomycin (Euroclone, Milano, Italy). Cells were maintained in humidified air containing 5% CO2, at 37 °C [30].
(§2) Cells were plated at density of 10,000 cells/well for Jurkat, 2000/well for WM266 and HDF, 1200 cells/well for HeLa, and 1000 for PANC, U87 and A375 in 96-well microplates (Thermofisher, Waltham, MA, USA). After 24 h incubation, cells were treated with increasing concentrations of synthetized compounds previously solubilized in DMSO at 50 mM concentration. Cell proliferation was determined by using (2-(2-methoxy-4-nitrophenyl)-3-(4-nitrophenyl)-5-(2,4-disulfophenyl)-2H-tetrazolium, monosodium salt (CCK-8, Sigma Aldrich) for Jurkat cells, and the 3-(4,5-dimethylthiazol-2-yl)-2,5- diphenyltetrazolium bromide assay (MTT, Sigma Aldrich, Sigma Aldrich, St. Louis, MO, USA)) for HeLa, WM266, PANC, U87 and HDF cells, after 48 h treatment. Plates were then analyzed by using a microplate reader (Enspire, Perkin Elmer Italia Spa, Milano, Italy) at 450 (CCK-8) or 570 nm (MTT).
(§3) The results are presented as the percentage of proliferating cells respect to the control (vehicle treated cells) and are expressed as means ± SE of, at least, three independent experiments performed in triplicate. The statistical analysis was performed using Student’s t-test, unpaired, two-sided, p < 0.05 was considered significant. The IC50 values were calculated by GraphPad Prism software.

[2] = test system: Jurkat cells; test: Apoptosis assay, annexin V-FITC/PI double staining, flow cytometry; assay type: cell-based, Human; conditions: 200 μM, 48 h
Procedure: (§4) For this purpose, Jurkat was incubated with the molecules at a concentration of 200 μM, and flow cytometric analysis with annexin V/propidium iodine (PI) double staining was carried out.
(§5) The apoptosis analysis was performed on Jurkat cells seeded at 2.5 × 10^5 cells/mL in a 6-well plate. The cells were incubated in the absence or presence of 200 μM concentration of examined compounds at 37 °C and apoptosis induction was analysed after 48 h by double staining with annexin V/FITC and propidium iodide (PI) (eBioscience, Affimetrix Santa Clara, CA, USA). The cells undergoing apoptosis were quantified using a flow cytometer equipped with a 488 nm argon laser (Becton Dickinson, Franklin Lakes, NJ, USA) by Cell Quest software. All FACS analyses were performed at least 2 times.

[3] = as above; assay type: cell-based, Human; conditions: human, Jurkat cells, 37 °C, Figure 4, read-out: viable cells (lower left quadrant)
Procedure: as §4, §5

[4] = test system: Jurkat; test: Antiproliferative activity on Jurkat cells (CCK-8); assay type: cell-based; conditions: Homo sapiens, 48 h incubation
Procedure: as §1, §2, §3

[5] = Hydroxyl radical (HO•) scavenging, second-order rate constant by laser flash photolysis (thiocyanate competition); conditions: calculated in H2O; mean of three replicates
Source text: Biologically, the hydroxyl radical (HO^●) is widely believed to be generated when hydrogen peroxide reacts with Fe(II) (Fenton reaction). The putative HO^●∙is an extremely reactive and short-lived species that can damage DNA, proteins, and lipids. However, the Fe(II)/H2O2 mixture has disadvantages in a scavenging assay because many flavonoids as well as flavonolignans are also metal chelators. When the sample is mixed with Fe(II), it may alter the activity of Fe(II) by chelation. As a result, it is impossible to distinguish if the antioxidants are simply good metal chelators or HO^● scavengers. In our study the second order rate constants for HO^● reactions with silybin dimers (6aa, 6bb and 6ab) have been determined by pulse photolysis method using hydrogen peroxide (H2O2) as ROS sources. […] This could be explained considering that in dimers 9′′-9′′ the 3, 5 and 4′′ OH functions, responsible for the radical scavenger activity, are not involved in any bond. […]
The reactivity constant between new silybin dimers and hydroxyl radical has been determined using Laser flash Photolysis system. […]
The formation of di-thiocyanate radical anion (SCN2^●−) through reactivity of photogenerated hydroxyl radicals (HO^●) with thiocyanate (SCN^- in the presence of hydrogen peroxide. The second-order rate constants between HO^● and dimers were determined following reactions (R1–R4 in the Section 2.2) and using the following equation:(1) Abs0/Abs=1+kHO^•,DimerII[Dimer]/kHO^•,SCN^−II[SCN^−] where Abs0 and Abs are the absorption of SCN2•− at 475 nm in absence and presence of dimers; kHO^•,SCN^−II and kHO^•,DimerII are the second-order rate constants of HO^● with thiocyanate and dimers at different concentrations. […] Means were compared by one way analysis of variance (ANOVA) and significant differences were assessed by post hoc tests of least significant. […]

[6] = parameters: method as in PMID 28800072; conditions: estimated, relative to silibinin; cited from earlier work

Row | SMILES | IC50 [1] [µM] | apoptotic cells (early and advanced) with respect to the control [2] | viability at 48 h, 200 µM [3] [%] | IC50 [4] [µM] | Second order rate constant kHO•,X II [5] | reactivity towards HO• with respect to silibinin [6]
1 | COc1cc([C@@H]2Oc3cc([C@H]4Oc5cc(O)cc(O)c5C(=O)[C@@H]4O)ccc3O[C@H]2CO)ccc1O [Compound 1b, silybin B, reference compound] | 172 ± 39 | 70% | 17.1 | 36 ± 14.3 | – | –
2 | COc1cc([C@H]2Oc3cc([C@H]4Oc5cc(O)cc(O)c5C(=O)[C@@H]4O)ccc3O[C@@H]2COP(=O)(O)OC[C@H]2Oc3ccc([C@H]4Oc5cc(O)cc(O)c5C(=O)[C@@H]4O)cc3O[C@@H]2c2ccc(O)c(OC)c2)ccc1O [Compound 6aa] | > 200 | 20% | 73 | 71 ± 15.5 | 8.63 ± 1.35 × 10^9 M^−1·s^−1 | –
3 | COc1cc([C@H]2Oc3cc([C@H]4Oc5cc(O)cc(O)c5C(=O)[C@@H]4O)ccc3O[C@@H]2CO)ccc1O [Compound 1a, silybin A, reference compound] | 199 ± 34.5 | 70% | 20.2 | 46.7 ± 14.1 | – | –
4 | COc1cc(C2Oc3cc([C@H]4Oc5cc(O)cc(O)c5C(=O)[C@@H]4OP(=O)(O)OCC4Oc5ccc([C@H]6Oc7cc(O)cc(O)c7C(=O)[C@@H]6O)cc5OC4c4ccc(O)c(OC)c4)ccc3OC2CO)ccc1O (stereo partly shown) [3-9′′] | – | – | – | – | – | about two times
5 | COc1cc([C@@H]2Oc3cc([C@H]4Oc5cc(O)cc(O)c5C(=O)[C@@H]4O)ccc3O[C@H]2COP(=O)(O)OC[C@@H]2Oc3ccc([C@H]4Oc5cc(O)cc(O)c5C(=O)[C@@H]4O)cc3O[C@H]2c2ccc(O)c(OC)c2)ccc1O [Compound 6bb] | > 200 | 4% | 84.8 | 59 ± 19.9 | 1.01 ± 0.16 × 10^10 M^−1·s^−1 | –
6 | COc1cc(C2Oc3cc([C@H]4Oc5cc(O)cc(O)c5C(=O)[C@@H]4O)ccc3OC2COP(=O)(O)OCC2Oc3ccc([C@H]4Oc5cc(O)cc(O)c5C(=O)[C@@H]4O)cc3OC2c2ccc(O)c(OC)c2)ccc1O (stereo partly shown) [9′′-9′′] | – | – | – | – | – | about two times
7 | COc1cc([C@H]2Oc3cc([C@H]4Oc5cc(O)cc(O)c5C(=O)[C@@H]4O)ccc3O[C@@H]2COP(=O)(O)OC[C@@H]2Oc3ccc([C@H]4Oc5cc(O)cc(O)c5C(=O)[C@@H]4O)cc3O[C@H]2c2ccc(O)c(OC)c2)ccc1O [Compound 6ab] | > 200 | about 25% | 63.6 | 64 ± 10.8 | 1.48 ± 0.09 × 10^10 M^−1·s^−1 | –
